Results from paper PMC11396746, “Stability Evaluation and Pharmacokinetic Profiling of Vepdegestrant in Rodents Using Liquid Chromatography–Tandem Mass Spectrometry” (Molecules, 2024).
Like-named read-outs stand apart in the source and are kept apart here.

Legend:
[1] = Stability of vepdegestrant in rat plasma under storage conditions (method validation); type: in vitro ADME
Experimental: The results were within ±15% RE under all storage conditions, including at room temperature for 6 h, after three freeze–thaw cycles, at −20 °C for 4 weeks, and in an autosampler for 24 h after sample preparation.
Stability was tested for vepdegestrant in biological samples at LQC and HQC under specific conditions: Short-term stability at room temperature for 6 h, three freeze–thaw cycles, long-term stability at −20 °C for 4 weeks, and pretreated samples in an autosampler for 24 h. The stability test was performed via five replicates analysis, with the acceptance criteria being an RE within ±15% at LQC and HQC levels.

[2] = Adsorption investigation after pH stability test (microtube emptied, ACN added, vepdegestrant recovered); type: physicochemical
Experimental: The half-lives of vepdegestrant at pH values of 2, 4, 6, 7.4, 8, and 10 were 7.35, 0.77, 0.40, 0.50, 0.38, and 0.60 h, respectively. Sun et al. reported that the thalidomide ligand, a cereblon-targeting moiety of PROTAC, was rapidly degraded in phosphate-buffered saline (PBS; pH 7.4). The binder in vepdegestrant contained lenalidomide, a CRBN ligand with a chemical structure similar to that of thalidomide. In addition, Chen et al. reported that the glutarimide ring of lenalidomide is cleaved and degraded through non-enzymatic hydrolysis in aqueous solutions and hepatocytes at physiological pH [24]. However, this instability might be attributed to the adsorption of vepdegestrant onto the surfaces of experimental containers such as microtubes. A high proportion of organic solvent can prevent vepdegestrant from binding to the sample vial surface, and the possibility of adsorption exists because a buffer solution was used in this study. To investigate adsorption, after the pH stability test was completed, the incubation mixture was completely emptied, and ACN was added and thoroughly mixed. LC-MS/MS analysis includes MRM transitions for the expected hydrolysis product i.e., m/z 742.3 → 356.3, to detect the presence of degradation products. […] In contrast, hydrolysis may play a significant role at pH 10. Based on these findings, future studies should consider the selection of container materials and the use of organic solvents to minimize vepdegestrant adsorption.

[3] = Metabolic stability in rat liver microsomes; type: in vitro ADME
Experimental: (§1) The metabolic stability of vepdegestrant was evaluated using liver microsomes obtained from mice, rats, dogs, and humans. Vepdegestrant was dissolved in DMSO to prepare a stock solution with a concentration of 0.1 mM. Microsomes (25 µL) were spiked into PBS (440 µL) and pre-incubated for 5 min. After pre-incubation, vepdegestrant stock solution (5 µL) was added, followed by an NADPH regenerating system (27 µL) to initiate the reaction. The composition of the reaction mixture was as follows: Vepdegestrant (final concentration 1 µM), mouse, rat, dog, human liver microsomes (protein concentration: 1 mg/mL), NADPH regenerating system (final concentrations: 1.3 mM NADP^+, 3.3 mM glucose-6-phosphate, 0.4 U/mL glucose-6-phosphate dehydrogenase, and 3.3 mM magnesium chloride), and PBS (pH 7.4). At 5, 15, 30, and 60 min after starting the reaction, aliquots (50 µL) were taken and added to ice-cold ACN with an IS (200 µL) to terminate the reaction. For the zero-time samples, aliquots were taken before adding NADPH. Subsequently, the mixture was vigorously mixed for 10 min and centrifuged at 17,054 g under 25 °C for 10 min. For analysis, 5 µL of the supernatant was injected into the HPLC-MS/MS system. In addition, the stability of vepdegestrant in rat liver microsomes was assessed in the absence of NADPH or NADPH and microsomes (PBS only). The experimental procedure was the same as described for the microsomal stability test, except that an equivalent volume of PBS was added instead of NADPH or microsomes.

[4] = Metabolic stability in human liver microsomes; type: in vitro ADME
Experimental: as §1, with “The experimental procedure was the same as described for the microsomal stability test, except that an equivalent volume of PBS was added instead of NADPH or microsomes.” left out

[5] = Pharmacokinetic study in male SD rats; type: in vivo; details: rat
Experimental: Twelve healthy male ICR mice (6 weeks old, 27.5–30.5 g) and 10 healthy male Sprague–Dawley (SD) rats (7 weeks old, 195.5–212.0 g) were acquired from Orient Bio Inc. (Seongnam, Republic of Korea) and used for PK studies. The animals were kept in rooms in a temperature range of 20–25 °C, humidity of 40–60%, and a 12-h light/dark cycle. Before the experiment, mice were fasted for 4 h, whereas rats were fasted for 14 h, with only water provided during the fasting period. After 4 h of drug administration, animals were provided with free access to food and water. All animal experiments were approved by the Institutional Animal Care and Use Committee of the Chungnam National University (202310A-CNU-178; Daejeon, Republic of Korea).
For the PK studies in rats, a vepdegestrant dosing solution was prepared using a combination of DMSO, PEG 400, cremophor EL, and saline (5:40:2.5:52.5, v/v/v/v). The dosages were set at 2 and 5 mg/kg for IV and PO, respectively, consistent with mouse PK studies. The dose volumes were 2 and 5 mL/kg IV and PO, respectively. Blood samples (100 µL) were collected from the jugular vein using heparinized syringes at 0.08 (IV only), 0.25, 0.5, 1, 2, 4, 8, and 24 h post vepdegestrant administration. Blood samples were immediately centrifuged at 12,032 g under 25 °C for 5 min, and plasma aliquots (20 μL) were stored at −20 °C until HPLC-MS/MS analysis.
The collected plasma samples from mice or rats (20 µL) were added with IS (20 µL) and ACN (160 µL). Subsequently, the mixture was vigorously mixed for 10 min and centrifuged at 17,054× g under 25 °C for 10 min. An aliquot of the supernatant (100 μL) was taken, and a volume of 5 μL was injected for HPLC-MS/MS analysis. PK parameters were calculated using Phoenix® 8.3 software (Certara L.P., Princeton, NJ, USA), as described previously.

[6] = male, Sprague-Dawley, plasma, IV 2 mg/kg
[7] = male, Sprague-Dawley, plasma, PO 5 mg/kg

O=C1CC[C@H](N2Cc3cc(N4CCN(CC5CCN(c6ccc([C@@H]7c8ccc(O)cc8CC[C@@H]7c7ccccc7)cc6)CC5)CC4)ccc3C2=O)C(=O)N1 [vepdegestrant, Vepdegestrant]
Stability in Rat Plasma ([1]; 1 month at −20 °C, nominal 3 ng/mL): 98.83 ± 12.58% | Stability in Rat Plasma ([1]; 1 month at −20 °C, nominal 900 ng/mL): 104.3 ± 8.5% | Stability in Rat Plasma ([1]; 6 h at room temperature (25 °C), nominal 3 ng/mL): 100.3 ± 7.1% | Stability in Rat Plasma ([1]; 6 h at room temperature (25 °C), nominal 900 ng/mL): 99.59 ± 4.12% | Stability in Rat Plasma ([1]; Freeze–thaw three-cycle (−20 °C → RT), nominal 3 ng/mL): 98.70 ± 7.09% | Stability in Rat Plasma ([1]; Freeze–thaw three-cycle (−20 °C → RT), nominal 900 ng/mL): 94.98 ± 1.40% | Stability in Rat Plasma ([1]; Processed sample in 10 °C autosampler for 24 h, nominal 3 ng/mL): 99.86 ± 0.84% | Stability in Rat Plasma ([1]; Processed sample in 10 °C autosampler for 24 h, nominal 900 ng/mL): 92.18 ± 6.32% | recovered vepdegestrant percentage (adsorbed to microtube, recovered with ACN) ([2]; pH 2, after pH stability test): 21.8% | recovered vepdegestrant percentage (adsorbed to microtube, recovered with ACN) ([2]; pH 4, after pH stability test): 108.9% | recovered vepdegestrant percentage (adsorbed to microtube, recovered with ACN) ([2]; pH 6, after pH stability test): 105.1% | recovered vepdegestrant percentage (adsorbed to microtube, recovered with ACN) ([2]; pH 7.4, after pH stability test): 72.6% | recovered vepdegestrant percentage (adsorbed to microtube, recovered with ACN) ([2]; pH 8, after pH stability test): 63.9% | recovered vepdegestrant percentage (adsorbed to microtube, recovered with ACN) ([2]; pH 10, after pH stability test): 27.7% | half-life at 1 µM ([3]; Sprague-Dawley, liver microsomes, pH 7.4, rat microsomes, 1 μM): 0.615 h | vepdegestrant remaining ([3]; rat microsomes in the absence of NADPH, 1 h incubation): 86.6% | remaining percentage of unconverted vepdegestrant ([3]; rat microsomes, 60 min, 1 μM, with NADPH): 32.2% | remaining percentage of unconverted vepdegestrant ([4]; 60 min, 1 μM, with NADPH): 98.3% | half-life at 1 µM ([4]; liver microsomes, pH 7.4): 13.4 h | Cmax [5, 6]: 850 ± 95 ng/mL | MRT [5, 6]: 4.14 ± 0.348 h | Tmax [5, 6]: 0.083 h | clearance [5, 6]: 17.6 mL/min/kg | half-life [5, 6]: 3.97 ± 0.284 h | Cmax [5, 7]: 108 ± 38 ng/mL | MRT [5, 7]: 6.54 ± 0.965 h | Tmax [5, 7]: 3.2 ± 2.95 h | half-life [5, 7]: 4.07 ± 0.418 h | bioavailability ([5]; male, Sprague-Dawley, plasma, PO 5 mg/kg vs IV 2 mg/kg, read-out: BA (oral bioavailability)): 24.1 ± 9.39% | Vd ([5]; male, Sprague-Dawley, plasma, intravenous, 2 mg/kg, read-out: volume of distribution): > 1 L/kg | Vd ([5]; male, Sprague-Dawley, plasma, iv, 2 mg/kg, IV 2 mg/kg, read-out: Vss): 4.43 ± 0.3 L/kg | AUCinf ([5]; IV 2 mg/kg): 1900 ± 90 ng·h/mL | AUClast ([5]; IV 2 mg/kg): 1880 ± 84 ng·h/mL | Vss ([5]; IV 2 mg/kg, 2 mg/kg): 4.354 ± 0.3 L/kg | AUCinf ([5]; PO 5 mg/kg): 1150 ± 446 ng·h/mL | AUClast ([5]; PO 5 mg/kg): 1120 ± 428 ng·h/mL | clearance as % of liver blood flow ([5]; liver blood flow 3.3 L/h/kg): approximately 31.9%
